Counter-ions that a name gives are not always drawn.
Test system: mice
Assay: Irwin test in mice, oral administration
Format: in vivo
From the text: These findings are most important, since the safety range of the compounds of this invention makes them be highly useful for their clinical application.

O=C(CN1CC[C@@H](c2ccc(F)cc2)[C@H](COc2ccc3c(c2)OCO3)C1)c1ccc(F)cc1 [Example 1, (-)-Trans-N-p-fluorobenzoylmethyl-4-(p-fluorophenyl)-3-[[3,4-(methylenedioxy)phenoxy]methyl]-piperidine hydrochloride]
signs of toxicity, Irwin test (600 mg/kg): did not show any sign of toxicity

O=C(CN1CC[C@@H](c2ccc(F)cc2)[C@H](COc2ccc3c(c2)OCO3)C1)c1ccc(Cl)cc1 [Example 2, (-)-Trans-N-p-chlorobenzoylmethyl-4-(p-fluorophenyl)-3-[[3,4-(methylenedioxy)phenoxy]methyl]-piperidine hydrochloride]
signs of toxicity, Irwin test (800 mg/kg): merely the onset of manifestations of hyperactivity was observed

Fc1ccc([C@@H]2CCNC[C@H]2COc2ccc3c(c2)OCO3)cc1 [Paroxetine, (-)-trans-4-(p-fluorophenyl)-3-[[3,4-(methylenedioxy)phenoxy]methyl]-piperidine, reference compound]
signs of toxicity, Irwin test (400 mg/kg): convulsions, mydriasis and Straub tail

— patent US5665736A, “N-benzoylmethyl-piperidines” (priority 1995, dated 1997)
